# Results: US20110097274A1, “Carbon-11 and fluorine-18 labeled radioligands for positron emission tomography (PET) imaging for the brain serotonin transporters” (priority 2002, published 2011)
# Counter-ions that a name gives are not always drawn. Like-named read-outs stand apart in the source and are kept apart here.
# Experiments:
# SERT [1] = target: SERT (Rattus norvegicus, UniProt P31652); experiment: In vitro binding assay on rat frontal cortex homogenates using [^3H]paroxetine; design: from tissue; host or cells: frontal cortex of male Sprague-Dawley rats, washed membrane homogenate; settings: mean ± SD, n = 3
# Description: In vitro binding assays: Measurement of the inhibition constants (Ki) of the labeled compounds in FIG. 1 on rat frontal cortex homogenates were performed at Columbia University using [^3H]paroxetine, as previously described (Laruelle et al., 1988b). Briefly, male Sprague-Dawley rats (250-300 g) were killed by decapitation. Dissection of the brain was carried out on ice and samples of the frontal cortex were stored at −40° C. until binding assay. After thawing, samples were homogenized in 10 volumes of buffer (50 mM Tris-HCl, pH 7.4, 120 mM NaCl and 5 mM KCl). The homogenates were centrifuged at 10,000 rpm for 10 minutes. Pellets were resuspended in 10 volumes of buffer, incubated at 37° C. for 10 minutes, and centrifuged again. This procedure was then repeated a third time.
# For the binding assay, membranes were suspended in buffer at a final protein concentration of 5 mg/mL. Unlabelled drugs were dissolved in dimethyl sulfoxide (DMSO) in borosilicate glass tubes to yield a 1 mM stock solution, from which subsequent serial dilutions were performed with the buffer. Aliquots of tissue preparation were incubated with [^3H]paroxetine (0.1 nM) at 22° C. or 37° C. for 60 minutes in the absence or presence of unlabelled drug (10^−5 to 10^−12 M) to yield a final volume of 0.5 mL (borosilicate glass tubes). Nonspecific binding was defined by incubation with 10 μM of citalopram. Each concentration was performed in triplicates. After incubation, the mixture was rapidly filtered through Whatman GF/B glass fiber filters using a 48-channel cell harvester (Brandel, Gaithersburg, Md.). The filters were washed 3 times with 4 mL each of ice cold buffer, placed in vials with 4 mL Ultima Gold solvent (Packard Instrument Co., Downers Grove, Ill.), and counted the following day for radioactivity in a liquid scintillation counter (Tricarb 1500, Packard Instrument Co., Downers Grove, Ill.). This experiment was performed three times at 22° C. and 37° C., on three different days. Ki values were derived using GraphPad Prism software (San Diego, Calif.).
# [2] = In vitro logP measurement, octanol/phosphate buffer pH 7.4; assay type: physicochemical; settings: octanol/phosphate buffer pH 7.4, radiolabeled compound, mean ± SD, n = 8
# Description: In vitro logP measurement: Octanol/water partition coefficient of the radiolabeled compounds were measured at Columbia University, using the method of Wilson et al. (2001), with some modifications. Briefly, 300 to 500 μCi of radioligand in EtOH was added to a separatory funnel containing octanol (20 mL) and phosphate buffer (20 mL, pH 7.4). The mixture was shaken mechanically for 3 minutes and the layers were separated. The octanol layer (15 mL) was transferred to a second separatory funnel containing 15 mL of the phosphate buffer (pH 7.4). The mixture was shaken mechanically for 3 minutes and the layers were separated. This second octanol layer was then partitioned into four test tubes (2 mL each) and the phosphate buffer (2 mL each) added. The test tubes were vortexed for 10 minutes, and then centrifuged for 10 minutes at 1000 rpm to separate the layers. The octanol and aqueous phases (1.0 mL each) were transferred into counting tubes and counted with a gamma counter (Wallac 1480 Wizard 3M Automatic Gamma Counter, Perkin-Elmer, Boston, Mass.). The radioactivity counts were decay-corrected and the partition coefficient calculated as P=counts in octanol/counts in buffer. Eight separate measurements were preformed for each tracer.
# [3] = target: T1, serotonin transporter (SERT) (Rattus norvegicus, UniProt P31652); experiment: In vitro binding affinity for SERT, radioligand [^3H]paroxetine (Table 1); design: species or system rat or human (cloned)
# T1 construct: membranes prepared from either the rat cortical tissues or cells expressed with cloned-human transporters; from tissue; host or cells: rat cortical tissue membranes (inferred; the alternative is cells expressing cloned human SERT)
# Description: (§1) Selected compounds were assayed in vitro for their binding affinity for the dopamine transporter (DAT), serotonin transporter (SERT), and norepinephrine transporter (NET) using membranes prepared from either the rat cortical tissues or cells expressed with cloned-human transporters and radioligands. Radioligands used were [^3H]paroxetine (SERT), [^3H]nisoxetine (NET), and [^3H]GBR12935 (DAT).
# [4] = target: T2, norepinephrine transporter (NET) (Homo sapiens, UniProt P23975); experiment: In vitro binding affinity for NET, radioligand [^3H]nisoxetine (Table 1); design: species or system rat or human (cloned)
# T2 construct: host or cells: either rat cortical tissue or cells expressing the cloned human transporter
# Description: as §1
# [5] = target: T3, dopamine transporter (DAT) (Homo sapiens, UniProt Q01959); experiment: In vitro binding affinity for DAT, radioligand [^3H]GBR12935 (Table 1); design: species or system rat or human (cloned)
# T3 construct: host or cells: either rat cortical tissue or cells expressing the cloned human transporter
# Description: as §1
# [6] = Biodistribution of labeled radioligands in male Sprague-Dawley rats; assay type: in vivo; settings: mean ± SD, n = 3
# Text: Appropriately labeled compounds were studied in animals to assess their binding characteristics in the brain. Procedures for these biodistribution studies are as follows. […] The brain regions (cerebellum, hippocampus, striatum, frontal cortex, thalamus and hypothalamus), along with samples of blood and part of the tail, were removed, weighed, and counted in a Packard Cobra II gamma counter. The percent injected dose (% ID) of the decay- and tail-corrected activity in the brain regions and blood were calculated based upon C-11 standards prepared from the injection solution, and the % ID/g were calculated using the tissue weights.
# SERT [7] = experiment: Experiment 5: PET brain imaging of ^11C and ^18F labeled AFM, AFA, AFE in one baboon; assay type: in vivo; settings: one adult male baboon, n = 1 to 4 scans, two-compartment model
# Description: (§2) General scanning methods were as described in Huang et al. (2002). Arterial input function was measured and corrected for metabolites.
# Activity distributed in the brain in accordance to the known density distribution pattern of SERT (Laruelle et al., 1988). […] Data were analyzed with a two-compartment model, using the metabolite-corrected arterial time-activity curve as input function. This analysis provided the regional distribution volumes (VT, mL/g).
# The nonspecific distribution volume, measured as the distribution volume of the cerebellum (a region with negligible SERT density) was in a similar range for all tracers (10 to 30 mL/g, Table 16).
# The specific to nonspecific partition coefficient, V3″, was calculated as the ratio of VT in the region of interest (ROI) to cerebellum VT minus one. V3″ provides a measure related to receptor parameters as follows: […]
# [8] = Experiment 5: plasma clearance of ^11C and ^18F labeled AFM, AFA, AFE in one baboon; assay type: in vivo; settings: one adult male baboon, n = 1 to 4 scans
# Description: as §2
# [9] = 22° C., read-out: Ki for SERT at 22° C.
# [10] = 37° C., read-out: Ki for SERT at 37° C.
# Chain of SERT (Rattus norvegicus, UniProt P31652) (P31652 whole entry): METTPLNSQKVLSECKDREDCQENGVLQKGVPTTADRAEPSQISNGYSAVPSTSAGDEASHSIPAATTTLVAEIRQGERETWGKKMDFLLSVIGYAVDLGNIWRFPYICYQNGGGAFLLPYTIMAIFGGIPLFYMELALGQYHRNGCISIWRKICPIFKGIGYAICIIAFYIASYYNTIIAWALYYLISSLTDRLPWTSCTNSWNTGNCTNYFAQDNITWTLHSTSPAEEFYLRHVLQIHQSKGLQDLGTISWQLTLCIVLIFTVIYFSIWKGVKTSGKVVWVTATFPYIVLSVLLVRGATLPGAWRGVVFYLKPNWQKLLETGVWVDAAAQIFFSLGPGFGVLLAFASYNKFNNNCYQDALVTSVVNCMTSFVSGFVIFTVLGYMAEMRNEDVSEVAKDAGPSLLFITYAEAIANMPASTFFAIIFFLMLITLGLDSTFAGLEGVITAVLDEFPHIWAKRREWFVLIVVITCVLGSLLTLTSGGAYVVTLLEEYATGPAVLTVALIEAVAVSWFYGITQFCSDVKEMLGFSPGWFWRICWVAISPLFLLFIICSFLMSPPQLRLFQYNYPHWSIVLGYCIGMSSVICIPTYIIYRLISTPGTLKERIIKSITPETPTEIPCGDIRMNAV
# T1 sequence (P31652 whole entry): as above
# T3 sequence (Q01959 whole entry, species assumed): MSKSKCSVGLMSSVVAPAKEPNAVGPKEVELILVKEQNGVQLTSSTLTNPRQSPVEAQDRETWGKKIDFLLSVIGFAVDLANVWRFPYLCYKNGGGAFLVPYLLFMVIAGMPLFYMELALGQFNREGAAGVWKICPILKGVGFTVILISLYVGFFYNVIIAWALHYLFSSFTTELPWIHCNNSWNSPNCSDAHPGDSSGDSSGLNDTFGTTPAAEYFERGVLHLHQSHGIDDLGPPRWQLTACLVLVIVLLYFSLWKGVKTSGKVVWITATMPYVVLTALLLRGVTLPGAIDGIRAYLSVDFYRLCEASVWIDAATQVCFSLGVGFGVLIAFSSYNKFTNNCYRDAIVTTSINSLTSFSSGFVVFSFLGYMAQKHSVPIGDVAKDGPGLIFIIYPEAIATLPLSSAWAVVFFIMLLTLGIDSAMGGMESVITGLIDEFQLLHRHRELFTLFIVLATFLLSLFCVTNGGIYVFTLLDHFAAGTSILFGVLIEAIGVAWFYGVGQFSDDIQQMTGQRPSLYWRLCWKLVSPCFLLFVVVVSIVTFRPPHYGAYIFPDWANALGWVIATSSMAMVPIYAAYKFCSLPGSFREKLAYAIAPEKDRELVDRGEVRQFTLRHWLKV
# T2 sequence (P23975 whole entry, species assumed): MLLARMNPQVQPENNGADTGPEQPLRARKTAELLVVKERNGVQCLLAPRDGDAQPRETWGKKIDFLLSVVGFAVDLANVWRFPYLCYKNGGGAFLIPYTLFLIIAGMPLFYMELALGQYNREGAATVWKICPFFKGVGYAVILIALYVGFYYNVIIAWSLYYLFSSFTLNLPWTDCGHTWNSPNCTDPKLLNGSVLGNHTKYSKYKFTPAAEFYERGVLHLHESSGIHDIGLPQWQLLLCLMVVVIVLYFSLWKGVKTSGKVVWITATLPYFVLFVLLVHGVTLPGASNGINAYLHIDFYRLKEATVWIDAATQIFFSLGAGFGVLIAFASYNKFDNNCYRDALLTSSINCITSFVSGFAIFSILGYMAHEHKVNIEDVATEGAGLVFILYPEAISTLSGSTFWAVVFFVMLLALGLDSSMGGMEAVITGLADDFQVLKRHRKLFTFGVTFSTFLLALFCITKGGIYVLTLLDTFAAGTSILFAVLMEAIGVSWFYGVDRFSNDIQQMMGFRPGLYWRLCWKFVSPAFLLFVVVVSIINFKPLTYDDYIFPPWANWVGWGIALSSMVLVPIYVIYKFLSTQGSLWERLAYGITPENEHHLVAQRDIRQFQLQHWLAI
smiles,measurement,setting,value
"CN(C)Cc1ccccc1Sc1ccc(Br)cc1N [DAPA, 5-bromo-2-{2[(dimethylamino)methyl]phenylthio}phenylamine]",Ki,SERT [1]; [9],0.38 ± 0.24 nM
same,Ki,SERT [1]; [10],0.33 ± 0.13 nM
same,logP,[2],3.06 ± 0.12
"CN(C)Cc1ccccc1Sc1ccc(F)cc1N (as salt: tartrate) [AFA, 2-(2-(Dimethylaminomethyl)phenylthio)-5-fluorophenylamine]",melting point,,158 to 159 °C
"CN(C)Cc1ccccc1Sc1ccc(CF)cc1N [AFM, 2-(2-(Dimethylaminomethyl)phenylthio)-5-fluoromethylphenylamine]",Ki,SERT [1]; [9],0.23 ± 0.04 nM
same,Ki,SERT [1]; [10],0.42 ± 0.12 nM
same,Ki,[3],0.23 nM
same,Ki,[4],664 nM
same,logP,[2],2.44 ± 0.03
same,Ki,[5],> 10000 nM
"CNCc1ccccc1Sc1ccc(F)cc1N (as salt: tartrate) [Example 41, 5-Fluoro-2-(2-(methylaminomethyl)phenylthio)phenylamine]",melting point,,106 to 108 °C
"CNCc1ccccc1Sc1ccc(C)cc1N (as salt: tartrate) [Example 39, 5-Methyl-2-(2-(methylaminomethyl)phenylthio)phenylamine]",melting point,,164 to 166 °C
"CN(C)Cc1ccccc1Sc1ccc(CCF)cc1N [[^11C]AFE, [^11C]2-[2-(Dimethylaminomethyl)phenylthio]-5-fluoroethylphenylamine]",% ID/g Blood,[6]; 10 min post-injection,0.15 ± 0.03 % ID/g
same,% ID/g Cerebellum,[6]; 10 min post-injection,0.31 ± 0.03 % ID/g
same,% ID/g Frontal Ctx.,[6]; 10 min post-injection,0.61 ± 0.07 % ID/g
same,% ID/g Hippocamp.,[6]; 10 min post-injection,0.44 ± 0.04 % ID/g
same,% ID/g Hypothal.,[6]; 10 min post-injection,0.61 ± 0.11 % ID/g
same,% ID/g Striatum,[6]; 10 min post-injection,0.58 ± 0.08 % ID/g
same,% ID/g Thalamus,[6]; 10 min post-injection,0.63 ± 0.08 % ID/g
same,% ID/g Blood,[6]; 30 min post-injection,0.07 ± 0.01 % ID/g
same,% ID/g Cerebellum,[6]; 30 min post-injection,0.12 ± 0.00 % ID/g
same,% ID/g Frontal Ctx.,[6]; 30 min post-injection,0.39 ± 0.03 % ID/g
same,% ID/g Hippocamp.,[6]; 30 min post-injection,0.31 ± 0.03 % ID/g
same,% ID/g Hypothal.,[6]; 30 min post-injection,0.44 ± 0.04 % ID/g
same,% ID/g Striatum,[6]; 30 min post-injection,0.35 ± 0.05 % ID/g
same,% ID/g Thalamus,[6]; 30 min post-injection,0.44 ± 0.05 % ID/g
same,% ID/g Blood,[6]; 60 min post-injection,0.05 ± 0.01 % ID/g
same,% ID/g Cerebellum,[6]; 60 min post-injection,0.05 ± 0.00 % ID/g
same,% ID/g Frontal Ctx.,[6]; 60 min post-injection,0.19 ± 0.02 % ID/g
same,% ID/g Hippocamp.,[6]; 60 min post-injection,0.18 ± 0.02 % ID/g
same,% ID/g Hypothal.,[6]; 60 min post-injection,0.29 ± 0.03 % ID/g
same,% ID/g Striatum,[6]; 60 min post-injection,0.19 ± 0.02 % ID/g
same,% ID/g Thalamus,[6]; 60 min post-injection,0.22 ± 0.01 % ID/g
same,Cerebellum V (nonspecific distribution volume),SERT [7],16 mL/g
same,Clearance,[8],73 L/h
"CSc1ccc(C2CN3CCCC3c3ccccc32)cc1 (single isomer, unassigned; (+)) [McN 5652, (+)-6β-(4-methylthiophenyl)-1,2,3,5,6α,10β-hexahydropyrrolo[2,1-a]isoquinoline]",logP,[2],2.51 ± 0.03
"CN(C)Cc1ccccc1Sc1ccc([18F])cc1N [[^18F]AFA, [^18F]2-[2-(Dimethylaminomethyl)phenylthio]-5-fluorophenylamine]",% ID/g Blood,[6]; 10 min post-injection,0.27 ± 0.01 % ID/g
same,% ID/g Cerebellum,[6]; 10 min post-injection,0.38 ± 0.09 % ID/g
same,% ID/g Frontal Ctx.,[6]; 10 min post-injection,0.81 ± 0.26 % ID/g
same,% ID/g Hippocamp.,[6]; 10 min post-injection,0.54 ± 0.17 % ID/g
same,% ID/g Hypothal.,[6]; 10 min post-injection,0.73 ± 0.26 % ID/g
same,% ID/g Striatum,[6]; 10 min post-injection,0.65 ± 0.18 % ID/g
same,% ID/g Thalamus,[6]; 10 min post-injection,0.72 ± 0.24 % ID/g
same,% ID/g Blood,[6]; 30 min post-injection,0.16 ± 0.01 % ID/g
same,% ID/g Cerebellum,[6]; 30 min post-injection,0.20 ± 0.01 % ID/g
same,% ID/g Frontal Ctx.,[6]; 30 min post-injection,0.65 ± 0.08 % ID/g
same,% ID/g Hippocamp.,[6]; 30 min post-injection,0.48 ± 0.02 % ID/g
same,% ID/g Hypothal.,[6]; 30 min post-injection,0.66 ± 0.05 % ID/g
same,% ID/g Striatum,[6]; 30 min post-injection,0.58 ± 0.05 % ID/g
same,% ID/g Thalamus,[6]; 30 min post-injection,0.69 ± 0.03 % ID/g
same,% ID/g Blood,[6]; 60 min post-injection,0.09 ± 0.00 % ID/g
same,% ID/g Cerebellum,[6]; 60 min post-injection,0.07 ± 0.01 % ID/g
same,% ID/g Frontal Ctx.,[6]; 60 min post-injection,0.28 ± 0.05 % ID/g
same,% ID/g Hippocamp.,[6]; 60 min post-injection,0.23 ± 0.04 % ID/g
same,% ID/g Hypothal.,[6]; 60 min post-injection,0.38 ± 0.03 % ID/g
same,% ID/g Striatum,[6]; 60 min post-injection,0.26 ± 0.02 % ID/g
same,% ID/g Thalamus,[6]; 60 min post-injection,0.34 ± 0.05 % ID/g
same,% ID/g Blood,[6]; 90 min post-injection,0.08 ± 0.01 % ID/g
same,% ID/g Cerebellum,[6]; 90 min post-injection,0.05 ± 0.01 % ID/g
same,% ID/g Frontal Ctx.,[6]; 90 min post-injection,0.20 ± 0.02 % ID/g
same,% ID/g Hippocamp.,[6]; 90 min post-injection,0.18 ± 0.01 % ID/g
same,% ID/g Hypothal.,[6]; 90 min post-injection,0.30 ± 0.06 % ID/g
same,% ID/g Striatum,[6]; 90 min post-injection,0.19 ± 0.01 % ID/g
same,% ID/g Thalamus,[6]; 90 min post-injection,0.23 ± 0.05 % ID/g
same,% ID/g Blood,[6]; 120 min post-injection,0.07 ± 0.01 % ID/g
same,% ID/g Cerebellum,[6]; 120 min post-injection,0.04 ± 0.00 % ID/g
same,% ID/g Frontal Ctx.,[6]; 120 min post-injection,0.11 ± 0.02 % ID/g
same,% ID/g Hippocamp.,[6]; 120 min post-injection,0.10 ± 0.01 % ID/g
same,% ID/g Hypothal.,[6]; 120 min post-injection,0.17 ± 0.01 % ID/g
same,% ID/g Striatum,[6]; 120 min post-injection,0.11 ± 0.02 % ID/g
same,% ID/g Thalamus,[6]; 120 min post-injection,0.16 ± 0.02 % ID/g
same,Cerebellum V (nonspecific distribution volume),SERT [7],24 mL/g
same,Clearance,[8],68 L/h
"CN(C)Cc1ccccc1Sc1ccc(C#N)cc1N [DASB, 3-amino-4-{2-[(dimethylamino)methyl]phenylthio}benzonitrile]",Ki,SERT [1]; [9],0.87 ± 0.41 nM
same,Ki,SERT [1]; [10],1.77 ± 0.25 nM
same,Ki,[3]; read-out: Ki SERT,0.87 nM
same,logP,[2],2.38 ± 0.03
same,Ki,[5],> 10000 nM
